The target in assay [1] is T1, Tissue alpha-L-fucosidase (Homo sapiens, UniProt P04066).
T1 sequence (P04066 whole entry): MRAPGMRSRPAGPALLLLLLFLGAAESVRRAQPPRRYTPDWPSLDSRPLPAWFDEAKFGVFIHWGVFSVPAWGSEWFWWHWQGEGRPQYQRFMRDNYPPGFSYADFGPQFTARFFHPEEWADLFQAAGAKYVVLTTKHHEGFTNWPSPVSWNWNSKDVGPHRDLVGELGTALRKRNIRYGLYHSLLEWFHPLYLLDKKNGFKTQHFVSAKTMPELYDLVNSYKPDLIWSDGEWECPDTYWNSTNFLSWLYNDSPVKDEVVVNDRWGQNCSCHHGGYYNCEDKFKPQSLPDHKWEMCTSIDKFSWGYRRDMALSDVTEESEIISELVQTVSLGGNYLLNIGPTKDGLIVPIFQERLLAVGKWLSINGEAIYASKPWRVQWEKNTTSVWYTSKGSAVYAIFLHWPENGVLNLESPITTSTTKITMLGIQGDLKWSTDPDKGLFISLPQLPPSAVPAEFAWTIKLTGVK
Briefly: Inhibitory concentration against alpha-L-Fucosidase of human placenta.

For assay [2], the target named is T2, Tissue alpha-L-fucosidase (Homo sapiens) (UniProt P04066).
T2 sequence (whole entry): T1 sequence (P04066 whole entry)
Briefly: Percent inhibition against alpha-L-Fucosidase of human placenta at 1 mM.

In assay [3] the target is T1, Tissue alpha-L-fucosidase. Description: Inhibitory activity against alpha-L-Fucosidase of human placenta expressed as Ki.
Assay [4] relates to Canavalia ensiformis. Briefly: Percent inhibition against Alpha-mannosidase of Jack bean at 1 mM.
Assay [5] concerns Prunus dulcis. Briefly: Percent inhibition against Alpha-mannosidase of Almonds at 1 mM.
The target in assay [6] is Glucoamylase (Aspergillus niger) (UniProt P69328). Briefly: Percent inhibition against Amyloglucosidase of Aspergillus niger at 1 mM.
Assay [7] deals with Beta-galactosidase (Bos taurus, UniProt Q58D55). Description: Inhibitory concentration against Beta-D-galactosidase of bovine liver.
Assay [8] concerns the target T3, Beta-galactosidase (Bos taurus) (UniProt Q58D55).
T3 sequence (whole entry): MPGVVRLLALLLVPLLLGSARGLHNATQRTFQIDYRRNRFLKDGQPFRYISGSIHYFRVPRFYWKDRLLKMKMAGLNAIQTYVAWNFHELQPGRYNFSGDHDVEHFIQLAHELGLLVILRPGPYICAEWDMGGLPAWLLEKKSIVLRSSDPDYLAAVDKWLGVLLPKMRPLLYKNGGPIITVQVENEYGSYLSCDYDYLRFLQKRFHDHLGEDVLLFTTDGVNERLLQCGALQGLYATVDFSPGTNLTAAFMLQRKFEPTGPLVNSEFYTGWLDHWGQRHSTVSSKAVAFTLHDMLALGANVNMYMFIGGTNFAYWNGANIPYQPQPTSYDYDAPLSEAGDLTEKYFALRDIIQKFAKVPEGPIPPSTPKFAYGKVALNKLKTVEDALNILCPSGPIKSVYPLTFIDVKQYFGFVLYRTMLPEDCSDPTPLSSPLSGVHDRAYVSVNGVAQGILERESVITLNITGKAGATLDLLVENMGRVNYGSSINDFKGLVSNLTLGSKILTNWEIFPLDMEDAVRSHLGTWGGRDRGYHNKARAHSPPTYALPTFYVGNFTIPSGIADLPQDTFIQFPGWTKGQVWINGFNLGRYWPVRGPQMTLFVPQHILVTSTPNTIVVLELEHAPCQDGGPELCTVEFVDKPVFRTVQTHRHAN
Description: Percent inhibition against Beta-D-galactosidase of bovine liver at 1 mM.

Assay [9] concerns the target T4, Beta-galactosidase (Aspergillus niger) (UniProt P29853).
T4 sequence (whole entry): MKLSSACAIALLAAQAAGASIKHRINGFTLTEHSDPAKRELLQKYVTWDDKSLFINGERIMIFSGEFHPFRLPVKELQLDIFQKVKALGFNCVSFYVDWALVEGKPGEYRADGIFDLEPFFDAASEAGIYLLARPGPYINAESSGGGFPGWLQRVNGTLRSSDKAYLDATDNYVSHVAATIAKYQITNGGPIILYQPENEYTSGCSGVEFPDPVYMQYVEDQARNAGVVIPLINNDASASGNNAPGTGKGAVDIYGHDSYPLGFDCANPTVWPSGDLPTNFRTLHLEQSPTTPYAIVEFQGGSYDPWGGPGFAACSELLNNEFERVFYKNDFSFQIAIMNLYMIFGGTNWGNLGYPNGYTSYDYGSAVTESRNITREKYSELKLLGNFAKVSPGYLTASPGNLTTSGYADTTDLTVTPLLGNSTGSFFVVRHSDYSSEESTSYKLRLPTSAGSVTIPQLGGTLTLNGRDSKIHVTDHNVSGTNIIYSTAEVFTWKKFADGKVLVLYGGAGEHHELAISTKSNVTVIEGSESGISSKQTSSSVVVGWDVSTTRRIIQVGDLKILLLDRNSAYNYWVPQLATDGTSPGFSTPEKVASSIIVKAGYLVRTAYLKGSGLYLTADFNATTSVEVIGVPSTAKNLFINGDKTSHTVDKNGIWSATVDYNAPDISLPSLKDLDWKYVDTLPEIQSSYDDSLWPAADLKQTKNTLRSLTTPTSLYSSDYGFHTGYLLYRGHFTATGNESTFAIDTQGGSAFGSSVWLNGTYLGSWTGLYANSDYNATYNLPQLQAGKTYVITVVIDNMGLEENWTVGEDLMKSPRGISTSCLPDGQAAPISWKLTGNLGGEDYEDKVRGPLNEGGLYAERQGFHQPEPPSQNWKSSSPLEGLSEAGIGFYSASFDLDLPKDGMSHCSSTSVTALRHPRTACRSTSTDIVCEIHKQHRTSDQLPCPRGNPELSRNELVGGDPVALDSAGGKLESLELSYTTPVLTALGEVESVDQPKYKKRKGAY
Description: Inhibitory activity against Beta-D-galactosidase of Aspergillus niger at 1 mM; No inhibition.

The target of assay [10] is Beta-galactosidase (Escherichia coli) (UniProt Q8VNN2). Description: Inhibitory activity against Beta-D-galactosidase of Escherichia coli at 1 mM; No inhibition.
The test system of assay [11] is maltase (Oryza sativa). Briefly: Inhibitory activity against maltase of rice at 1 mM; No inhibition.
The subject of assay [12] is maltase (Saccharomyces cerevisiae). Description: Inhibitory activity against maltase of yeast at 1 mM; No inhibition.
For assay [13], the system named is Rhizopus. Briefly: Percent inhibition against Amyloglucosidase of Rhizopus mold at 1 mM.
The test system of assay [14] is Coffea arabica. Briefly: Percent inhibition against Alpha-galactosidase of coffee bean at 1 mM.
The subject of assay [15] is isomaltase (Saccharomyces cerevisiae). Description: Inhibitory activity against isomaltase of baker yeast at 1 mM; No inhibition.
For assay [16], the system named is Prunus dulcis. Briefly: Inhibitory activity against Beta-glucosidase of almonds at 1 mM; No inhibition.
Assay [17] has as its system Canavalia ensiformis. Description: Inhibitory activity against Beta-D-galactosidase of Jack bean at 1 mM; No inhibition.
The test system of assay [18] is Helix pomatia. Description: Inhibitory activity against Beta-mannosidase of Helix pomatia at 1 mM; No inhibition.
The test system of assay [19] is Escherichia coli. Briefly: Inhibitory activity against Alpha-galactosidase of Escherichia coli at 1 mM; No inhibition.
Assay [20] relates to Aspergillus niger. Description: Inhibitory activity against Alpha-galactosidase of Aspergillus niger at 1 mM; No inhibition.
Assay [21] has as its system Beta-N-acetylglucosaminidase (Canavalia ensiformis). Briefly: Inhibitory activity against Beta-N-acetylglucosaminidase of Jack bean at 1 mM; No inhibition.
In assay [22] the test system is Aspergillus oryzae. Description: Inhibitory activity against Beta-D-galactosidase of Aspergillus oryzae at 1 mM; No inhibition.
The test system of assay [23] is Caldicellulosiruptor saccharolyticus. Briefly: Inhibitory activity against Beta-glucosidase of Caldocellum saccharolyticum at 1 mM; No inhibition.
The species named for assay [24] is Gallus gallus. Briefly: Inhibitory activity against alpha-N-acetylgalactosaminidase of chicken liver at 1 mM; No inhibition.
In assay [25] the test system is Beta-N-acetylglucosaminidase (Bos taurus). Briefly: Inhibitory activity against Beta-N-acetylglucosaminidase of bovine epididymis A at 1 mM; No inhibition.
Assay [26] has the same test system. Description: Inhibitory activity against Beta-N-acetylglucosaminidase of bovine epididymis B at 1 mM; No inhibition.
Assay [27] is described as follows: Inhibitory concentration against Alpha-mannosidase of Jack bean. Also noted: species or system Canavalia ensiformis.
Assay [28] has as its target Beta-galactosidase (Escherichia coli) (UniProt Q8VNN2). Briefly: Inhibitory activity against beta-D-Galactosidase of Escherichia coli at 1 mM; No inhibition.
Assay [29] in a line: Inhibitory activity against Alpha-mannosidase of Jack bean expressed as Ki. Also noted: species or system Canavalia ensiformis.
Assay [30] has as its system Prunus dulcis. Description: Inhibitory activity against Alpha-mannosidase of Almonds at 1 mM; No inhibition.
For assay [31], the system named is Canavalia ensiformis. Briefly: Inhibitory activity against Alpha-mannosidase of Jack bean at 1 mM; No inhibition.
The target of assay [32] is Glucoamylase (Aspergillus niger) (UniProt P69328). Briefly: Inhibitory activity against Amyloglucosidase of Aspergillus niger at 1 mM; No inhibition.
The species entered for assay [33] is Bos taurus. Description: Percent inhibition against alpha-L-Fucosidase of bovine epididymis at 1 mM.
In assay [34] the test system is Rhizopus. Description: Inhibitory activity against Amyloglucosidase of Rhizopus mold at 1 mM; No inhibition.
For assay [35], the system named is Coffea arabica. Description: Inhibitory activity against Alpha-galactosidase of coffee bean at 1 mM; No inhibition.

The text below walks through data of ChEMBL document CHEMBL1133967, “New leads for selective inhibitors of alpha-L-fucosidases. Synthesis and glycosidase inhibitory activities of [(2R,3S,4R)-3,4-dihydroxypyrrolidin-2-yl]furan derivatives” (Bioorg Med Chem Lett, 2001).

Active and inactive are the calls of the source. The rule behind the calls is not given here. Some results are limits rather than exact numbers.

What is called IC50 is the point on the concentration scale where inhibition reaches its midpoint. Usually inhibition stands for the percentage by which the read-out fell short of the control. In general, Ki refers to a dissociation constant, usually derived from enzyme kinetics or from competition with a known ligand. Read a low Ki as a stronger hold on the target.

Sequence of Glucoamylase (Aspergillus niger) (P69328 whole entry): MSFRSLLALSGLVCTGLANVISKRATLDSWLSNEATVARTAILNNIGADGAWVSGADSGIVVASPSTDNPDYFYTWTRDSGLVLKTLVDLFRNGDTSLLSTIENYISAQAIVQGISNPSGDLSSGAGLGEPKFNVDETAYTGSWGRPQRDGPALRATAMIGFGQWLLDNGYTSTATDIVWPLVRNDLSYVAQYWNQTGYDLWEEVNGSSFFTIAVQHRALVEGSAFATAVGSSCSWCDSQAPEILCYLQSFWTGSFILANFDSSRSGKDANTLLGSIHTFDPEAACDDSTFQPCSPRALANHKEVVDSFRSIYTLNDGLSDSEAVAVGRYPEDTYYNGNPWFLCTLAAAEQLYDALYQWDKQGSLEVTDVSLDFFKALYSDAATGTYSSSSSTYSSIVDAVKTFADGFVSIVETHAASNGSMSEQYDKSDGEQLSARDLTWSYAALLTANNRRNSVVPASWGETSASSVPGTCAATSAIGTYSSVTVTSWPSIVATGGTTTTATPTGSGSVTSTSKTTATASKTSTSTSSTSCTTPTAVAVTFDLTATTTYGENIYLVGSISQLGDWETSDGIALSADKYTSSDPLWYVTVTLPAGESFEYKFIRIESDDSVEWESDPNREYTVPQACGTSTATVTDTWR
Sequence of Beta-galactosidase (Escherichia coli) (Q8VNN2 whole entry, looked up): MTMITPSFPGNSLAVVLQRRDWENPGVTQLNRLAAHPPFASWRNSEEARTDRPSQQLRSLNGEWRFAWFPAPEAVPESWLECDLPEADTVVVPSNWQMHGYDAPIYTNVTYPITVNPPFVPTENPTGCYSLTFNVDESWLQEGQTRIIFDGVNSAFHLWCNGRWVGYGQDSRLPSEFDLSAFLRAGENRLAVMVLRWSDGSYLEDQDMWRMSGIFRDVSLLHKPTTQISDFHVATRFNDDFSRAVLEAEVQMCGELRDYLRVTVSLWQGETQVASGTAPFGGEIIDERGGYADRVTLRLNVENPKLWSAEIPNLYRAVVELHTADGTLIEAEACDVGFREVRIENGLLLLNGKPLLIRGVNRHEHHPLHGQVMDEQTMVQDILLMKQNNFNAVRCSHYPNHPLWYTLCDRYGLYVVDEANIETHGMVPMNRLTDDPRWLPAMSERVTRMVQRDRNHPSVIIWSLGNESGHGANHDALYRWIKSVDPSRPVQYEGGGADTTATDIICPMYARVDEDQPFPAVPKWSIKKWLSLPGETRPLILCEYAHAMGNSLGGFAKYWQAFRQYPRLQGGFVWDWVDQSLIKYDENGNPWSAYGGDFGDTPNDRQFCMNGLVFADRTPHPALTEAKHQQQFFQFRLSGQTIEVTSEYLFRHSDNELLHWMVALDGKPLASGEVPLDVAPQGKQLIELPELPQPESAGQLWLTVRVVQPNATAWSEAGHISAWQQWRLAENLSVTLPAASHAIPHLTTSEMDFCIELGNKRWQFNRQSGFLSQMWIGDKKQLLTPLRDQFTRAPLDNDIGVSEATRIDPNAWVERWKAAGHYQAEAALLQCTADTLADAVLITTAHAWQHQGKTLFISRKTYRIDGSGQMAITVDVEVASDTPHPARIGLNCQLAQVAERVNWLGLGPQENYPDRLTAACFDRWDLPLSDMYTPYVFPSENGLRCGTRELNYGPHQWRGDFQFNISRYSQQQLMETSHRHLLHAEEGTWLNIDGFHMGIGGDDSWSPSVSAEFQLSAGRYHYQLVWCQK

`COC(=O)c1cc(C2NCC(O)C2O)oc1C` (stereo not given): the IC50 came to 150 µM in [1] and 800 µM in assay [7]. In addition, the inhibition in assay [2] is 88%; in assay [4], 23%; in assay [5], 36%; in assay [6], 23%; in assay [8], 54%; in [9], “No inhibition”. Moreover, the inhibition result is “No inhibition” in assay [10]; “No inhibition” in assay [11]; “No inhibition” in assay [12]; 33% in [13]; 42% in assay [14]; “No inhibition” in assay [15]. The inhibition result in assay [17], in [18], in assay [19], in assay [20], in assay [22] and in [23] was “No inhibition” in each case. For the same compound, the inhibition result in assay [24] is “No inhibition”. Moreover, in [3], the affinity corresponds to a Ki of 13.8 µM. In addition, the inhibition result in assay [16], in assay [21], in assay [25] and in assay [26] was “inactive” throughout.

Turning to `Cc1oc(C2NCC(O)C2O)cc1C(=O)OC(C)C` (stereo not given), the IC50 amounted to 250 µM in assay [27] and 640 µM in assay [7]. In addition, the inhibition in [4] was found to be 78%; in assay [5] it was 57%; in assay [6], 27%; in assay [8], 57%. Further, the inhibition entry in assay [9] and in assay [28] was “inactive” in each case. The same compound showed a Ki in assay [29] of 85 µM.

`Cc1oc(C2NCC(O)C2O)cc1C(=O)Nc1ccccc1` (stereo not given): the inhibition entry in assay [30], in [31], in assay [32], in assay [9], in assay [10] and in assay [11] was “inactive” in each case. Also, the inhibition entry in [12], in assay [15], in assay [16], in [34], in assay [17] and in assay [35] was “inactive” in each case. Also, the inhibition result in [19], in [20], in assay [21], in assay [22], in assay [24] and in assay [25] was “inactive” each time. Further, the inhibition result in assay [26] was “inactive”. The compound further came in with a half-maximal inhibitory concentration (IC50) in [1] of 1000 µM. Moreover, the inhibition was 51% in [2]; 39% in [8]; < 10% in assay [33]; “No inhibition” in assay [18]; “No inhibition” in [23].
